Test results published in ChEMBL document CHEMBL4138213, “Synthesis and biological characterization of ubenimex-fluorouracil conjugates for anti-cancer therapy” (Eur J Med Chem, 2018).
Values belong to the compound of their own block, whether it stands above or below them. The source made the active and inactive calls. The calls are words filed in the database; no cut-off is given here.

Key:
Aminopeptidase N = biological target: T1, Aminopeptidase N (Sus scrofa, UniProt P15145); assay: Inhibition of porcine kidney CD13 using L-leucine-p-nitroanilide as substrate preincubated for 5 mins followed by substrate addition measured after 30 mins
T1 sequence (P15145 whole entry): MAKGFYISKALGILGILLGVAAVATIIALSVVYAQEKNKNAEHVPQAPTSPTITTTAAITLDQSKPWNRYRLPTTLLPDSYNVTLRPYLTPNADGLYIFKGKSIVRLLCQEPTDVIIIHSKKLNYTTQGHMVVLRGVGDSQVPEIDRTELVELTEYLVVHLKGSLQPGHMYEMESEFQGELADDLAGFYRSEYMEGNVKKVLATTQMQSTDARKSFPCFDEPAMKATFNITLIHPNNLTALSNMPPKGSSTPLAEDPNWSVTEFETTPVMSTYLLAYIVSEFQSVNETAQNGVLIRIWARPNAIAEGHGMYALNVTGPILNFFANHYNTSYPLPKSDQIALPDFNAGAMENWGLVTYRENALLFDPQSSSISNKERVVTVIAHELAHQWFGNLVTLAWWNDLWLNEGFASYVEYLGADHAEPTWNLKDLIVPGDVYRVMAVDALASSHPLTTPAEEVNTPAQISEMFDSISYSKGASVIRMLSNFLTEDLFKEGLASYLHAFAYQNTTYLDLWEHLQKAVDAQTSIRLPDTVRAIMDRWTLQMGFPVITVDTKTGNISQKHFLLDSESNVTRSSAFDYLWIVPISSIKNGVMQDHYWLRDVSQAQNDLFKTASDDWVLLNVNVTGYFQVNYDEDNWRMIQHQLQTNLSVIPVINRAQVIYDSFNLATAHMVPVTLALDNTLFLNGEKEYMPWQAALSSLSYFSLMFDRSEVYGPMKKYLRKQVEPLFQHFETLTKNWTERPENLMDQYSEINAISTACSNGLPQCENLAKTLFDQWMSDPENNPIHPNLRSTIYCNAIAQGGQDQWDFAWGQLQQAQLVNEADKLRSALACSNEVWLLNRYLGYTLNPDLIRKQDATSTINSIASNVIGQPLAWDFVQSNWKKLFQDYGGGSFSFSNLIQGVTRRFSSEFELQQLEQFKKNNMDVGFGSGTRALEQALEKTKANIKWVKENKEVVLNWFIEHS

PLC-PRF-5 [1] = assay: Antiproliferative activity against human PLC/PRF/5 cells after 48 hrs by MTT assay; settings: PLC-PRF-5, 48 h
cells = settings: Homo sapiens, ES-2, 48 h
Description: Antiproliferative activity against human ES2 cells after 48 hrs by MTT assay

[2] = Drug level in Wistar rat plasma treated with (5-fluoro-2,4-dioxo-3,4-dihydropyrimidin1(2H)-yl)methyl-2-((S)-2-((2S,3R)-3-amino-2-hydroxy-4-phenylbut-anamido)-4-methylpentanamido)acetate hydrochloride assessed as carboxylesterase-mediated compound formation at 80 mg/kg, iv by HPLC-MS/MS analysis; assay type: ADME, organism-based; settings: in vivo
[3] = AUC (0 to infinity) in Wistar rat at 80 mg/kg, iv after 0.05 to 24 hrs by HPLC-MS/MS analysis; assay type: ADME, organism-based; design: dose 80 mg/kg, time infinity, route intravenous; settings: in vivo
[4] = (§1) MRT (0 to infinity) in Wistar rat at 80 mg/kg, iv after 0.05 to 24 hrs by HPLC-MS/MS analysis; assay type: ADME, organism-based; settings: Wistar, in vivo
Rattus norvegicus [5] = assay: VRT (0 to infinity) in Wistar rat at 80 mg/kg, iv after 0.05 to 24 hrs by HPLC-MS/MS analysis; assay type: ADME, organism-based; settings: in vivo
[6] = Apparent clearance in Wistar rat at 80 mg/kg, iv after 0.05 to 24 hrs by HPLC-MS/MS analysis; assay type: ADME, organism-based; settings: in vivo, read-out: CL(app) (converted)
[7] = Volume of distribution during elimination phase in Wistar rat at 80 mg/kg, iv after 0.05 to 24 hrs by HPLC-MS/MS analysis; assay type: ADME, organism-based; settings: in vivo, read-out: Vz
[8] = (§2) Terminal Half life in Wistar rat at 80 mg/kg, iv after 0.05 to 24 hrs by HPLC-MS/MS analysis; assay type: ADME, organism-based; settings: Wistar, in vivo, read-out: beta t1/2 (converted)
[9] = Cmax in Wistar rat at 80 mg/kg, iv after 0.05 to 24 hrs by HPLC-MS/MS analysis; assay type: ADME, organism-based; design: dose 80 mg/kg, route intravenous; settings: in vivo
U-266 = assay: Antiproliferative activity against human U266 cells after 48 hrs by MTT assay; settings: U-266, 48 h
A549 = assay: Antiproliferative activity against human A549 cells after 48 hrs by MTT assay; settings: A549, 48 h
[10] = Antiproliferative activity against human H7402 cells after 48 hrs by MTT assay; settings: H7402, 48 h
PLC-PRF-5 [11] = assay: Anticlonogenic activity against human PLC/PRF/5 cells after 2 weeks by Giemsa staining-based inverted microscopic method; assay type: functional, cell-based
PLC-PRF-5 [12] = assay: Induction of apoptosis in human PLC/PRF/5 cells assessed as early apoptotic cells at 20 uM after 48 hrs by annexin-V-FITC/propidium iodide staining-based flow cytometric method (reference value: 5.82%); assay type: functional
PLC-PRF-5 [13] = assay: Induction of apoptosis in human PLC/PRF/5 cells assessed as late apoptotic cells at 20 uM after 48 hrs by annexin-V-FITC/propidium iodide staining-based flow cytometric method (reference value: 0.341%); assay type: functional
PLC-PRF-5 [14] = assay: Induction of apoptosis in human PLC/PRF/5 cells assessed as necrotic cells at 20 uM after 48 hrs by annexin-V-FITC/propidium iodide staining-based flow cytometric method (reference value: 0.106%); assay type: functional
PLC-PRF-5 [15] = assay: Induction of apoptosis in human PLC/PRF/5 cells assessed as viable cells at 20 uM after 48 hrs by annexin-V-FITC/propidium iodide staining-based flow cytometric method (reference value: 93.7%); assay type: functional; settings: PLC-PRF-5, 48 h, read-out: Activity
PLC-PRF-5 [16] = assay: Induction of reactive oxygen species formation in human PLC/PRF/5 cells at 10 uM by DCF-DA staining-based flow cytometric method; assay type: functional, cell-based; settings: TDE = time-dependent effect
PLC-PRF-5 [17] = assay: Downregulation of CD13 expression in human PLC/PRF/5 cells at 10 uM after 48 hrs by flow cytometric method; assay type: functional, cell-based
Thoracic aorta = assay: Antiangiogenic activity in Wistar rat thoracic aorta ring assessed as inhibition of microvessels sprouting at 20 ug/ml treated every other day for 9 days; assay type: functional, tissue-based
Homo sapiens = species: Homo sapiens; assay: Antiinvasive activity in human ES2 cells at 5 ug/ml after 24 hrs by transwell assay; assay type: functional, cell-based
[18] = Drug metabolism in human plasma assessed as 5-FU formation at 4 mg/ml after 8 hrs by HPLC method; assay type: ADME, cell-free
[19] = Drug metabolism in Wistar rat plasma assessed as carboxylesterase-mediated 5-FU formation at 80 mg/kg, iv by HPLC-MS/MS analysis; assay type: ADME, organism-based; settings: in vivo
[20] = Drug metabolism in Wistar rat plasma assessed as peptidase-mediated ubenimex formation at 80 mg/kg, iv by HPLC-MS/MS analysis; assay type: ADME, organism-based; settings: in vivo
[21] = Drug metabolism in Wistar rat plasma assessed as carboxylesterase-mediated 2-((S)-2-((2S,3R)-3-amino-2-hydroxy-4-phenylbutanamido)-4-methylpentan-amido)-acetic acid formation at 80 mg/kg, iv by HPLC-MS/MS analysis; assay type: ADME, organism-based; settings: in vivo
H22 [22] = assay: Antitumor activity against […] cells xenografted in iv dosed mouse administered 5 days per week for 2 weeks; assay type: functional, organism-based
H22 [23] = assay: Antitumor activity against 5-FU-resistant […] cells xenografted in Kunming mouse at 82 mg/kg, iv after 14 days; assay type: functional, organism-based
Mus musculus [24] = assay: Toxicity in Kunming mouse xenografted with 5-FU-resistant […] H22 cells assessed as mortality at 82 mg/kg, iv after 14 days; assay type: organism-based; settings: in vivo, 336 h
Mus musculus [25] = assay: Toxicity in Kunming mouse xenografted with 5-FU-resistant […] H22 cells assessed as body weight loss at 82 mg/kg, iv measured for 14 days during compound dosing; assay type: organism-based; settings: in vivo, 336 h
H22 [26] = assay: Antimetastatic activity in […] cells xenografted in iv dosed mouse assessed as decrease in lung metastasis nodus number administered 5 days followed by 2 days of withdrawal; assay type: functional, organism-based
Rattus norvegicus [27] = assay: as §1; assay type: ADME, organism-based; settings: in vivo
Rattus norvegicus [28] = assay: as §2; assay type: ADME, organism-based; settings: in vivo
U-937 = assay: cells; settings: Homo sapiens, U-937, 48 h
Description: Antiproliferative activity against human U937 cells after 48 hrs by MTT assay

HCT-116 = assay: cells; settings: Homo sapiens, HCT-116, 48 h
HepG2 = assay: cells; settings: Homo sapiens, HepG2, 48 h

IC50 (Aminopeptidase N): 0.68 µM | IC50 (cells): 131 µM
SMILES: CC(C)C[C@H](NC(=O)[C@@H](O)[C@H](N)Cc1ccccc1)C(=O)NCCC(=O)OCn1cc(F)c(=O)[nH]c1=O
IC50 (PLC-PRF-5 [1]): 59 µM

IC50 (Aminopeptidase N): 0.6 µM | Drug metabolism [2]: Metabolite_Detected | AUC(0-inf) [3]: 36200 ng·h/mL | MRT inf [4]: 3.22 h | VRT (Rattus norvegicus [5]): 3.797 hr2 | clearance [6]: 36.8 mL/min/kg | Vd [7]: 3.93 L/kg | half-life [8]: 1.23 h | Cmax [9]: 8570 ng/mL
SMILES: CC(C)C[C@H](NC(=O)[C@@H](O)[C@H](N)Cc1ccccc1)C(=O)NCC(=O)O.Cl

SMILES: CC(C)C[C@H](NC(=O)[C@@H](O)[C@H](N)Cc1ccccc1)C(=O)NCC(=O)OCn1cc(F)c(=O)[nH]c1=O.Cl
IC50 (Aminopeptidase N): 0.18 µM | IC50 (PLC-PRF-5 [1]): 16.5 µM | IC50 (U-266): 31.6 µM | IC50 (A549): 15.3 µM | IC50 [10]: 19.9 µM | Activity (PLC-PRF-5 [11]): Dose-dependent effect | Activity (PLC-PRF-5 [12]): 24.2% | Activity (PLC-PRF-5 [13]): 4.69% | Activity (PLC-PRF-5 [14]): 0% | viability at 20 µM (PLC-PRF-5 [15]): 71.1% | Activity (PLC-PRF-5 [16]): Tde | Activity (PLC-PRF-5 [17]): Active | Activity (Thoracic aorta): Active | Activity (Homo sapiens): Active | Drug metabolism [18]: Metabolite_Detected | Drug metabolism [19]: Metabolite_Detected | Drug metabolism [20]: Metabolite_Detected | Drug metabolism [21]: Metabolite_Detected | Activity (H22 [22]): Dose-dependent effect | Activity (H22 [23]): Active | Activity (Mus musculus [24]): Non-Toxic | Activity (Mus musculus [25]): Non-Toxic | Activity (H22 [26]): Dose-dependent effect | AUC(0-inf) [3]: 14700 ng·h/mL | MRT (Rattus norvegicus [27]): 2.576 h | VRT (Rattus norvegicus [5]): 4.423 hr2 | clearance [6]: 90.5 mL/min/kg | Vd [7]: 6.23 L/kg | beta t1/2 (Rattus norvegicus [28]): 0.795 h | Cmax [9]: 5870 ng/mL | IC50 (cells): 23.5 µM | IC50 (U-937): 10.2 µM | IC50 (HCT-116): 26 µM | IC50 (HepG2): 14.2 µM

IC50 (Aminopeptidase N): 0.69 µM | IC50 (cells): 110 µM
SMILES: CC(C)C[C@H](NC(=O)[C@@H](O)[C@H](N)Cc1ccccc1)C(=O)NCCCC(=O)OCn1cc(F)c(=O)[nH]c1=O
IC50 (PLC-PRF-5 [1]): 53 µM
